{
  "source": "patent US20250302869A1",
  "about": "“USE OF INHALED NITRIC OXIDE (INO) FOR TREATING PATIENTS WITH PULMONARY HY[…] SARCOIDOSIS (PH-SARC)” (Mallinckrodt Pharmaceuticals Ireland Limited, priority 2022, published 2025)",
  "key": {"[1]": {"test_system": "patients with pulmonary hypertension associated with sarcoidosis (PH-SARC)", "experiment": "Acute iNO dose escalation study, right heart catheterization hemodynamics (Phase 2, Part 1)", "type": "in vivo, human", "settings": "for PVR change from baseline: pulsed, 10 min, baseline median 329.4; for PVR change from baseline / CO percent change from baseline / PCWP percent change from baseline / PVR percent change from baseline / mPAP percent change from baseline / CO change from baseline / PCWP change from baseline / mPAP change from baseline: median (IQR); for CO change from baseline: baseline median 5.9; for PCWP change from baseline: baseline median 13.5; for mPAP change from baseline: baseline median 37.2", "source_text": "Patients with sarcoidosis may develop pulmonary hypertension (PH) which is associated with an impaired quality of life and limitations on activities of daily living. The Phase 2 trial, was designed to determine the safety and clinical efficacy of pulsed iNO, a potent and well-established vasodilator, on sarcoidosis-associated with PH patients, as well as to evaluate the safe and effective dose of iNO in subjects on long term oxygen therapy (LTOT) with possible or definite pulmonary hypertension associated with sarcoidosis.\nSarcoidosis patients with PH on prior right heart catherization (RHC) or on echocardiography were enrolled in a two-part open label study. Patients underwent RHC, to establish baseline hemodynamics including mean pulmonary arterial pressure (mPAP), cardiac output (CO), pulmonary wedge pressure (PCWP) with derivation of pulmonary vascular resistance (PVR).\n(§1) Patients were administered acute escalating doses of pulsatile iNO via an INOpulse device starting at 30 mcg/kg ideal body weight/hr (iNO30) and increasing up to 125 mcg/kg ideal body weight/hr (iNO125) to assess the impact of each dose level on hemodynamic parameters. Patients were treated with iNO for 10 minutes per dose with a 10-minute washout between doses.\nEach dose level was followed by a washout period. All hemodynamic wave forms were reviewed by a blinded hemodynamic core lab for determination of end-exhalation PAP and PCWP. After the acute vasodilator study, subjects were eligible to participate in a long-term open label extension study at the dose of iNO found to be most beneficial by the RHC measurements, as determined by the investigator.\n(§2) During the Treatment Visit of Part 1 of the study, subjects were admitted to the cardiac catheterization suite/ICU/CCU and a Swan Ganz Catheter was inserted, and subjects were monitored during acute exposure to iNO at 30, 45, 75, 125 mcg/kg IBW/hr. Hemodynamic changes were monitored during this part of the study. The primary endpoint for Part 1 of the study was to assess the change in mean pulmonary artery pressure (mPAP), pulmonary capillary wedge pressure (PCWP), cardiac output (CO) and pulmonary vascular resistance (PVR) on iNO 30, 45, 75, 125 mcg/kg IBW/hr compared to baseline. The Safety Endpoint includes incidence and severity of treatment emergent adverse events (AEs), including those related to device deficiency, symptoms that may be due to rebound associated with acute withdrawal of iNO: systemic arterial oxygen desaturation, hypoxemia, bradycardia, tachycardia, systemic hypotension, shortness of breath, near-syncope, and syncope, and change in oxygen saturation and vital signs.\nThe changes in hemodynamics were determined for absolute change (as shown in FIGS. 2A-2D) and percent change (as shown in FIGS. 2E-2H) from baseline in PVR, mPAP, CO and PCWP. The analysis depicted illustrates the change from baseline (box & whisker plot provides median, IQR, and min/max). Statistical analysis based on Wilcoxon […] was assessed between baseline and each dose as well as each dose and each prior dose and no correction was conducted for multiplicity."}, "[2]": {"test_system": "patients with pulmonary hypertension associated with sarcoidosis (PH-SARC)", "experiment": "Safety and tolerability in the acute iNO dose escalation study", "type": "in vivo, human", "experimental": "as §1, §2"}},
  "data": [
    {"smiles": "[N]=O", "note": "[iNO, nitric oxide]", "values": [
      {"measurement": "median mPAP reduction from baseline across the doses", "setting": "[1]; across the doses of iNO30 to iNO125, baseline median mPAP 37.2 mmHg", "result": "6-10%"},
      {"measurement": "patients demonstrating decreases in mPAP and PVR", "setting": "[1]; across the doses of iNO from iNO30 to iNO125, blinded core lab, 8 patients", "result": "all 8 patients demonstrated decreases in mPAP and PVR"},
      {"measurement": "PCWP across all doses", "setting": "[1]; all doses iNO30 to iNO125", "result": "remained stable"},
      {"measurement": "cardiac output (CO) across all doses", "setting": "[1]; all doses iNO30 to iNO125", "result": "remained stable"},
      {"measurement": "PVR change from baseline", "setting": "[1]; iNO30 (30 mcg/kg IBW/hr)", "result": "−19.2 (39.0) dyne*sec*cm-5"},
      {"measurement": "CO percent change from baseline", "setting": "[1]; iNO30 (30 mcg/kg IBW/hr)", "result": "−2.5% (11.2)"},
      {"measurement": "PCWP percent change from baseline", "setting": "[1]; iNO30 (30 mcg/kg IBW/hr)", "result": "−4.1% (29.1%)"},
      {"measurement": "PVR percent change from baseline", "setting": "[1]; iNO30 (30 mcg/kg IBW/hr)", "result": "−7.0% (10.6%)"},
      {"measurement": "mPAP percent change from baseline", "setting": "[1]; iNO30 (30 mcg/kg IBW/hr)", "result": "−7.1% (10.0%)"},
      {"measurement": "CO change from baseline", "setting": "[1]; iNO30 (30 mcg/kg IBW/hr)", "result": "−0.1 (0.6) L/min"},
      {"measurement": "PCWP change from baseline", "setting": "[1]; iNO30 (30 mcg/kg IBW/hr)", "result": "−1.0 (4.3) mmHg"},
      {"measurement": "mPAP change from baseline", "setting": "[1]; iNO30 (30 mcg/kg IBW/hr)", "result": "−2.7 (2.8) mmHg"},
      {"measurement": "PVR change from baseline", "setting": "[1]; iNO45 (45 mcg/kg IBW/hr)", "result": "−48.4 (84.6) dyne*sec*cm-5"},
      {"measurement": "CO percent change from baseline", "setting": "[1]; iNO45 (45 mcg/kg IBW/hr)", "result": "1.0% (6.5%)"},
      {"measurement": "PCWP percent change from baseline", "setting": "[1]; iNO45 (45 mcg/kg IBW/hr)", "result": "0.0% (20.5%)"},
      {"measurement": "mPAP percent change from baseline", "setting": "[1]; iNO45 (45 mcg/kg IBW/hr)", "result": "−10.6% (15.8%)"},
      {"measurement": "CO change from baseline", "setting": "[1]; iNO45 (45 mcg/kg IBW/hr)", "result": "0.0 (0.3) L/min"},
      {"measurement": "PCWP change from baseline", "setting": "[1]; iNO45 (45 mcg/kg IBW/hr)", "result": "0.0 (2.5) mmHg"},
      {"measurement": "mPAP change from baseline", "setting": "[1]; iNO45 (45 mcg/kg IBW/hr)", "result": "−4.0 (5.2) mmHg"},
      {"measurement": "median decrease of PVR from baseline", "setting": "[1]; iNO45 dose, range −54% to +22%, baseline median PVR 329 dyne*sec*cm-5", "result": 20, "unit": "%"},
      {"measurement": "PVR change from baseline", "setting": "[1]; iNO75 (75 mcg/kg IBW/hr)", "result": "−68.0 (92.7) dyne*sec*cm-5"},
      {"measurement": "CO percent change from baseline", "setting": "[1]; iNO75 (75 mcg/kg IBW/hr)", "result": "0.1% (6.1%)"},
      {"measurement": "PCWP percent change from baseline", "setting": "[1]; iNO75 (75 mcg/kg IBW/hr)", "result": "10.6% (29.5%)"},
      {"measurement": "PVR percent change from baseline", "setting": "[1]; iNO75 (75 mcg/kg IBW/hr)", "result": "−15.3% (37.7%)"},
      {"measurement": "mPAP percent change from baseline", "setting": "[1]; iNO75 (75 mcg/kg IBW/hr)", "result": "−6.3% (13.2%)"},
      {"measurement": "CO change from baseline", "setting": "[1]; iNO75 (75 mcg/kg IBW/hr)", "result": "0.0 (0.4) L/min"},
      {"measurement": "PCWP change from baseline", "setting": "[1]; iNO75 (75 mcg/kg IBW/hr)", "result": "1.5 (4.3) mmHg"},
      {"measurement": "mPAP change from baseline", "setting": "[1]; iNO75 (75 mcg/kg IBW/hr)", "result": "−2.3 (3.9) mmHg"},
      {"measurement": "PVR change from baseline", "setting": "[1]; iNO125 (125 mcg/kg IBW/hr)", "result": "−85.8 (67.1) dyne*sec*cm-5"},
      {"measurement": "CO percent change from baseline", "setting": "[1]; iNO125 (125 mcg/kg IBW/hr)", "result": "4.2% (14.6%)"},
      {"measurement": "PCWP percent change from baseline", "setting": "[1]; iNO125 (125 mcg/kg IBW/hr)", "result": "0.0% (30.7%)"},
      {"measurement": "PVR percent change from baseline", "setting": "[1]; iNO125 (125 mcg/kg IBW/hr)", "result": "−28.7% (20.8%)"},
      {"measurement": "mPAP percent change from baseline", "setting": "[1]; iNO125 (125 mcg/kg IBW/hr)", "result": "−6.4% (11.0%)"},
      {"measurement": "CO change from baseline", "setting": "[1]; iNO125 (125 mcg/kg IBW/hr)", "result": "0.2 (0.8) L/min"},
      {"measurement": "PCWP change from baseline", "setting": "[1]; iNO125 (125 mcg/kg IBW/hr)", "result": "0.0 (4.0) mmHg"},
      {"measurement": "mPAP change from baseline", "setting": "[1]; iNO125 (125 mcg/kg IBW/hr)", "result": "−3.0 (3.5) mmHg"},
      {"measurement": "median decrease of PVR from baseline", "setting": "[1]; iNO125 dose, range −43% to −5%, p=0.02 vs. baseline and prior dose", "result": 29, "unit": "%"},
      {"measurement": "tolerability", "setting": "[2]; across all the doses iNO30 to iNO125", "result": "well-tolerated"},
      {"measurement": "adverse events or serious adverse events related to iNO", "setting": "[2]; acute doses iNO30 to iNO125, 8 patients", "result": "No adverse events or serious adverse events related to iNO were reported"}
    ]}
  ]
}
